Tests used:
[1] = molecular target: T1, Alpha-1A adrenergic receptor (Homo sapiens, UniProt P35348); experiment: Compound was evaluated for its binding affinity to COS cell membrane expressing the human Alpha-1A adrenergic receptor; assay type: cell membranes
T1 sequence (P35348 whole entry): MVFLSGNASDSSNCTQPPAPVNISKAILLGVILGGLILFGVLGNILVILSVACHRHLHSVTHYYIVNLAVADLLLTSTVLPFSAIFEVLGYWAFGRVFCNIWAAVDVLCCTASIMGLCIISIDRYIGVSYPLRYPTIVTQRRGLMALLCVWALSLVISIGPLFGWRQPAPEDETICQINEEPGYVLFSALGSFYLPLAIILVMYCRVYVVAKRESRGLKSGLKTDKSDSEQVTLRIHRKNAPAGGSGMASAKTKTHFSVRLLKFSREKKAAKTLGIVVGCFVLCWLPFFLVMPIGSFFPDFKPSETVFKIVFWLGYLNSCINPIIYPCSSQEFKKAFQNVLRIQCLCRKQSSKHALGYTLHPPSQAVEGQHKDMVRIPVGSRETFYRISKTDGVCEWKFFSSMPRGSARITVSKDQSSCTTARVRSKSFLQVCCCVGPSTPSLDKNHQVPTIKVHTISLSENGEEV

[2] = molecular target: Alpha adrenergic receptor (1a and 1d) (Homo sapiens) (UniProt P35348+P25100); experiment: Ratio of binding affinity of compound to human adrenergic receptor alpha-1d to that of human adrenergic receptor alpha-1a; assay type: protein assay
[3] = molecular target: T2, Alpha-1B adrenergic receptor (Homo sapiens, UniProt P35368); experiment: Compound was evaluated for its binding affinity towards COS cell membrane expressing the human Alpha-1B adrenergic receptor; assay type: cell membranes
T2 sequence (P35368 whole entry): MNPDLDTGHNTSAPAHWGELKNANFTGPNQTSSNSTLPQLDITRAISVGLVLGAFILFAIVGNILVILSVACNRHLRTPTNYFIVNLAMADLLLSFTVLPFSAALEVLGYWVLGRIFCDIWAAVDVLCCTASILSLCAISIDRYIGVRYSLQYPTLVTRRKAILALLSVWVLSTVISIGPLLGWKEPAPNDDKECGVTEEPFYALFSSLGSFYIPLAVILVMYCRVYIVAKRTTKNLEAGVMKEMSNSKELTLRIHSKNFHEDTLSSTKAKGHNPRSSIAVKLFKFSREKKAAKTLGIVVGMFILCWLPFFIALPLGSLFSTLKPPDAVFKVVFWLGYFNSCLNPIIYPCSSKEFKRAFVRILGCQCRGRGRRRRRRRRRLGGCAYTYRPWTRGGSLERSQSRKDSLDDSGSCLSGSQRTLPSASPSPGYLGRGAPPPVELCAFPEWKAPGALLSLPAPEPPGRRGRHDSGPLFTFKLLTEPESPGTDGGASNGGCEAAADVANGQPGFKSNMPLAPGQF

[4] = molecular target: Adrenergic receptors; alpha-1 A & B (Homo sapiens) (UniProt P35348+P35368); experiment: Ratio of binding affinity of compound to human adrenergic receptor alpha-1b to that of human adrenergic receptor alpha-1a; assay type: protein assay
[5] = molecular target: T3, Alpha-1D adrenergic receptor (Homo sapiens, UniProt P25100); experiment: Compound was evaluated for its binding affinity to COS cell membrane expressing the human Alpha-1D adrenergic receptor; assay type: cell membranes
T3 sequence (P25100 whole entry): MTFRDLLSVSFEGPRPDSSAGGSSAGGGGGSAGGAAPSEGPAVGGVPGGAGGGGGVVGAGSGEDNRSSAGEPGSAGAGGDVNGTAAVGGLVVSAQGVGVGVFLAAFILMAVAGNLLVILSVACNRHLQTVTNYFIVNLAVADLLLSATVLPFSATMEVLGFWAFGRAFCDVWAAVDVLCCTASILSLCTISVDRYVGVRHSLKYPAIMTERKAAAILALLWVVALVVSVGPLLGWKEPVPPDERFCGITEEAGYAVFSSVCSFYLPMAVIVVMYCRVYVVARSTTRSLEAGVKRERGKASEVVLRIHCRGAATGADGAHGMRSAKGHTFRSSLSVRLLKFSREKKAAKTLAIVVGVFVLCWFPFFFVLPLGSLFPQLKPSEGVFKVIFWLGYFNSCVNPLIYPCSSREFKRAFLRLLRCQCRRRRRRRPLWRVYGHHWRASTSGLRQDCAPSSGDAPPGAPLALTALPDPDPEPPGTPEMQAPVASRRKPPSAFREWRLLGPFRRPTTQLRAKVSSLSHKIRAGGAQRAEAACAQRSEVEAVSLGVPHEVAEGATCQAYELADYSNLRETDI

| Ki [1] [nM] | Ratio [2] | Ki [3] [nM] | Ratio [4] | Ki [5] [nM] | Structure (SMILES) |
| --- | --- | --- | --- | --- | --- |
| 9 | 5 | 2770 | 308 | 44 | CC(C)Oc1ccccc1N1CCN(Cc2cc(CN3CCCCC3=O)nn2C)CC1 |
| 89 | 17 | > 10000 | > 112 | 1520 | CC(C)Oc1ccccc1N1CCN(CC2=NOC(CN3CCCCC3=O)C2)CC1 (stereo not given) |
| 3.7 | 14 | 3080 | 832 | 52 | CC(C)Oc1ccccc1N1CCN(Cc2cc(CN3CCCCC3=O)n(C)n2)CC1 |
| 2.1 | 84 | 3920 | 1860 | 177 | CC(C)Oc1ccccc1N1CCN(Cc2cc(CN3CCCCC3=O)n[nH]2)CC1 |
| 79 | > 127 | > 10000 | > 127 | > 10000 | CC(C)Oc1ccccc1N1CCN(Cc2cc(CN3CCCCC3=O)nc(N)n2)CC1 |
| 3.8 | 72 | 4460 | 1170 | 272 | CC(C)Oc1ccccc1N1CCN(Cc2cc(CN3CCCCC3=O)on2)CC1 |
